Laboratory results as given in ChEMBL document CHEMBL5233239, “Matrix metalloproteinase-9 (MMP-9) and its inhibitors in cancer: A minireview” (Eur J Med Chem, 2020).
Each block holds one compound with its values, some of them ahead of it.

Tests used:
[1] = target: T1, Matrix metalloproteinase-9 (Homo sapiens, UniProt P14780); test: Inhibition of MMP-9 (unknown origin)
[2] = target: T2, Interstitial collagenase (Homo sapiens, UniProt P03956); test: Inhibition of MMP-1 (unknown origin)
T2 sequence (P03956 whole entry): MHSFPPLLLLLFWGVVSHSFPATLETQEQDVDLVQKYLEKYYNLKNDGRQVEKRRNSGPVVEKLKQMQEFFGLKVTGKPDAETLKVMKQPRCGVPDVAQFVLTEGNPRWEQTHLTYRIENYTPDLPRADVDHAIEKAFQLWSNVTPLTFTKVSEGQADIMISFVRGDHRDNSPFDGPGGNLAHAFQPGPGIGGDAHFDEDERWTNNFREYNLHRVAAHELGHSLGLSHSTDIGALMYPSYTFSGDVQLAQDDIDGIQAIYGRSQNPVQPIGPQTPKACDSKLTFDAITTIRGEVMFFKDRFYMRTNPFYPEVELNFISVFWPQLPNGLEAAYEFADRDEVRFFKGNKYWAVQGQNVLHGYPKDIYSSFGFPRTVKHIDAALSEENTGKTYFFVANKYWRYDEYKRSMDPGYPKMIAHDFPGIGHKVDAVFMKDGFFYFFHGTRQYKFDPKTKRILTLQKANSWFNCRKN

[3] = target: Disintegrin and metalloproteinase domain-containing protein 17 (Homo sapiens, UniProt P78536); test: Inhibition of TACE (unknown origin)
Disintegrin and metalloproteinase domain-containing protein 17, sequence (P78536 whole entry, the tested form may be a part): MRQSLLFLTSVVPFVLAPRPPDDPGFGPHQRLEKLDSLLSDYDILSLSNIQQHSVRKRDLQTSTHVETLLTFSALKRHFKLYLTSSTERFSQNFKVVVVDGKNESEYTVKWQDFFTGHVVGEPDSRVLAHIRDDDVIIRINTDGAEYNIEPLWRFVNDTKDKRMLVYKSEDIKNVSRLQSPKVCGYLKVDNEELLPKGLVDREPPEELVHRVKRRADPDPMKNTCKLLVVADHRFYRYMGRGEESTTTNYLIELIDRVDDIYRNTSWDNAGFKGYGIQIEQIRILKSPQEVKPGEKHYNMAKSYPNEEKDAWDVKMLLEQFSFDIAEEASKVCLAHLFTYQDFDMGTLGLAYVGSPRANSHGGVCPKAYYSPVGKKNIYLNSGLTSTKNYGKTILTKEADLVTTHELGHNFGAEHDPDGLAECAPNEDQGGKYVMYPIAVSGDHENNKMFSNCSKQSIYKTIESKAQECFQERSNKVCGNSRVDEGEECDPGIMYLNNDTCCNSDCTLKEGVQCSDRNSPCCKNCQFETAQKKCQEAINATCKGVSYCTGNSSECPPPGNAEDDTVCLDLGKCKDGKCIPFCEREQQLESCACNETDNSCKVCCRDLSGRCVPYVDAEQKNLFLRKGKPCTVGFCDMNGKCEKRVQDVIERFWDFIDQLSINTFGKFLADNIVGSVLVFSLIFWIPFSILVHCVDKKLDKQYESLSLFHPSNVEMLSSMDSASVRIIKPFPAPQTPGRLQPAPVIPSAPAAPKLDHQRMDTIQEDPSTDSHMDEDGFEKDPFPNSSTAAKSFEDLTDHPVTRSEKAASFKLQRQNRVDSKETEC

[4] = target: T3, Collagenase 3 (Homo sapiens, UniProt P45452)
Description: Inhibition of MMP-13 (unknown origin)

[5] = target: T4, Matrilysin (Homo sapiens, UniProt P09237); test: Inhibition of recombinant human MMP7 using […] as substrate incubated for 20 to 30 mins by fluorescence microplate reader analysis
T4 sequence (P09237 whole entry): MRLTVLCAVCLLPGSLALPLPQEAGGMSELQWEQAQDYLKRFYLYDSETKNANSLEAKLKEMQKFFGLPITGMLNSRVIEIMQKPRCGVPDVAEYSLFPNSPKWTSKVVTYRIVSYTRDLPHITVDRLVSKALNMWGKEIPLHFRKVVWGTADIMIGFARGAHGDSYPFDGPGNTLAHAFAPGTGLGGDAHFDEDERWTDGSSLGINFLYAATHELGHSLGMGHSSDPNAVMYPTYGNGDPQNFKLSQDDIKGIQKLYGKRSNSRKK

[6] = target: T5, Stromelysin-1 (Homo sapiens, UniProt P08254); test: Inhibition of recombinant human MMP3 expressed in Escherichia coli BL21 (DE3) using [3H]transferrin as substrate incubated for 3 hrs by scintillation counter analysis
Target sequence in this assay (P08254 whole entry): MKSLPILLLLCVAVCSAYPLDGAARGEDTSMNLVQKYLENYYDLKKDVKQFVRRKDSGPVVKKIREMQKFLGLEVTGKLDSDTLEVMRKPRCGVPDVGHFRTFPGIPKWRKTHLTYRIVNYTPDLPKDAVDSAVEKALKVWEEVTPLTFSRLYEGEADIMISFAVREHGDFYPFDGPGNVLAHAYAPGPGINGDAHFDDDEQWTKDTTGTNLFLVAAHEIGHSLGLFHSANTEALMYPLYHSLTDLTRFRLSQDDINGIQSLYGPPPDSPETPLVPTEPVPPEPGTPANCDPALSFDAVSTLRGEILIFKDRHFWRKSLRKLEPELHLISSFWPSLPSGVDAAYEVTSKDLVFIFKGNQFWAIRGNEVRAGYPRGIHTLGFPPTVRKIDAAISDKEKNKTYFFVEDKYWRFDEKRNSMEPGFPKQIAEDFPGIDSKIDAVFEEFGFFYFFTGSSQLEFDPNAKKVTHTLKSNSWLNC

[7] = target: T3, Collagenase 3; test: Inhibition of recombinant human MMP13 using […] as substrate incubated for 20 to 30 mins by fluorescence microplate reader analysis
[8] = target: T1, Matrix metalloproteinase-9; test: Inhibition of recombinant human MMP9 using […] as substrate incubated for 20 to 30 mins by fluorescence microplate reader analysis
[9] = target: T2, Interstitial collagenase; test: Inhibition of recombinant human MMP1 expressed in Escherichia coli BL21 (DE3) using Mca-Pro-Leu-Gly-Leu-Dpa-Ala-Arg-NH2 as substrate incubated for 20 to 30 mins by fluorescence assay
[10] = target: T6, 72 kDa type IV collagenase (Homo sapiens, UniProt P08253); test: Inhibition of MMP-2 (unknown origin) at 20 uM by fluorometric assay
Target sequence in this assay (P08253 110-660 limits assumed): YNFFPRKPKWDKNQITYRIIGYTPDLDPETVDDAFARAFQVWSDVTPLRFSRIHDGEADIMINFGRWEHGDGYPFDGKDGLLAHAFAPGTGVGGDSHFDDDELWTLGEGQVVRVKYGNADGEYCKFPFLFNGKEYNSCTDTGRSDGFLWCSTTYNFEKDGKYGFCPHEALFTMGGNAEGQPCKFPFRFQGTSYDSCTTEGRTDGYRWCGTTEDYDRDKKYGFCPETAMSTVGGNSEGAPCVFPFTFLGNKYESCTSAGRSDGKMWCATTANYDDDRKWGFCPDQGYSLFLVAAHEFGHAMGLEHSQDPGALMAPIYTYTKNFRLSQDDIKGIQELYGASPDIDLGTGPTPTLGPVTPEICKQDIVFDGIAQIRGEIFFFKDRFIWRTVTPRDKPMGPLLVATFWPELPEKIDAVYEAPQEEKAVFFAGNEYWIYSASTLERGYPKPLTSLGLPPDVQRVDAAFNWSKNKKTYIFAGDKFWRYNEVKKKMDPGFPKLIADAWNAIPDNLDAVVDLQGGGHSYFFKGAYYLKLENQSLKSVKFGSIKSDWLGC

[11] = target: Neutrophil collagenase (Homo sapiens, UniProt P22894); test: Inhibition of MMP-8 (unknown origin) at 20 uM by fluorometric assay
Neutrophil collagenase, sequence (P22894 101-467 limits assumed): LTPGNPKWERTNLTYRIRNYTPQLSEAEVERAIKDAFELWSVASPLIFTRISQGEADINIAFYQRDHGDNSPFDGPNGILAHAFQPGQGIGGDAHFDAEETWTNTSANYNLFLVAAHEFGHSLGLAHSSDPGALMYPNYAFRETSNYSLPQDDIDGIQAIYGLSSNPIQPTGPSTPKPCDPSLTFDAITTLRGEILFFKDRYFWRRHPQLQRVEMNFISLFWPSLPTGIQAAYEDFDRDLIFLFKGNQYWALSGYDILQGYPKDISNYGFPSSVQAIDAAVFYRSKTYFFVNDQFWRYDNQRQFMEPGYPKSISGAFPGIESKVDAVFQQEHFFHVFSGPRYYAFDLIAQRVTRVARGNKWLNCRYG

[12] = target: T5, Stromelysin-1; test: Inhibition of MMP-3 (unknown origin) at 20 uM by fluorometric assay
Target sequence in this assay (P08254 100-477 limits assumed): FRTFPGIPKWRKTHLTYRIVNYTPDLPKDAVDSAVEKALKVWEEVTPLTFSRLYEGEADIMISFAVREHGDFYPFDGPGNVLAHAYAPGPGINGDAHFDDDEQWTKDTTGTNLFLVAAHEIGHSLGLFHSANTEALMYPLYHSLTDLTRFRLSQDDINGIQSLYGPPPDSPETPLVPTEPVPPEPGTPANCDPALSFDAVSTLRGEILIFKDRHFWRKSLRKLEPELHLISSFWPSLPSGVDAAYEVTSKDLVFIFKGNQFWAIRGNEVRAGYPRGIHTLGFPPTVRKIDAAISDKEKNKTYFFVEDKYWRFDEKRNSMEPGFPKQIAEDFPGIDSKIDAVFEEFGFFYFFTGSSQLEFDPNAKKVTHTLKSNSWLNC

[13] = target: T1, Matrix metalloproteinase-9; test: Inhibition of MMP-9 (unknown origin) at 20 uM by fluorometric assay
[14] = target: Macrophage metalloelastase (Homo sapiens) (UniProt P39900); test: Inhibition of MMP-12 (unknown origin) at 20 uM by fluorometric assay
Macrophage metalloelastase (Homo sapiens), sequence (P39900 106-470 limits assumed): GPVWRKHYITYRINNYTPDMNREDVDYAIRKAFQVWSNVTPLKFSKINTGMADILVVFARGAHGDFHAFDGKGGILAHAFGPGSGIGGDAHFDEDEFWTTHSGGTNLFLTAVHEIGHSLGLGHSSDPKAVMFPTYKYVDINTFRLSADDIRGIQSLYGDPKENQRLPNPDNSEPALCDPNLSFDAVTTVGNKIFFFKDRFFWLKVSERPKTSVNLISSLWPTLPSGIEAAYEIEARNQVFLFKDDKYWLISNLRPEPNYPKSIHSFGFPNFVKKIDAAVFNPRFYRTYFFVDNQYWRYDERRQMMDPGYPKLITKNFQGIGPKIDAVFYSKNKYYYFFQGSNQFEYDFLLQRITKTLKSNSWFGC

[15] = target: Matrix metalloproteinase-14 (Homo sapiens) (UniProt P50281); test: Inhibition of MMP-14 (unknown origin) at 20 uM by fluorometric assay
[16] = target: T7, Matrilysin (Homo sapiens) (UniProt P09237); test: Inhibition of MMP-7 (unknown origin) at 20 uM by fluorometric assay
T7 sequence (whole entry): T4 sequence (P09237 whole entry)

[17] = target: T2, Interstitial collagenase; test: Inhibition of human MMP1 using Dnp-Pro-Cha-Gly-Cys(ME)-His-Ala-Lys(Nma)-NH2 as substrate preincubated for 0.5 hrs followed by substrate addition and measured after 6 hrs by fluorimeter analysis
[18] = target: T6, 72 kDa type IV collagenase; test: Inhibition of human MMP2 using Dnp-Pro-Cha-Gly-Cys(ME)-His-Ala-Lys(Nma)-NH2 as substrate preincubated for 0.5 hrs followed by substrate addition and measured after 6 hrs by fluorimeter analysis
Target sequence in this assay (P08253 whole entry): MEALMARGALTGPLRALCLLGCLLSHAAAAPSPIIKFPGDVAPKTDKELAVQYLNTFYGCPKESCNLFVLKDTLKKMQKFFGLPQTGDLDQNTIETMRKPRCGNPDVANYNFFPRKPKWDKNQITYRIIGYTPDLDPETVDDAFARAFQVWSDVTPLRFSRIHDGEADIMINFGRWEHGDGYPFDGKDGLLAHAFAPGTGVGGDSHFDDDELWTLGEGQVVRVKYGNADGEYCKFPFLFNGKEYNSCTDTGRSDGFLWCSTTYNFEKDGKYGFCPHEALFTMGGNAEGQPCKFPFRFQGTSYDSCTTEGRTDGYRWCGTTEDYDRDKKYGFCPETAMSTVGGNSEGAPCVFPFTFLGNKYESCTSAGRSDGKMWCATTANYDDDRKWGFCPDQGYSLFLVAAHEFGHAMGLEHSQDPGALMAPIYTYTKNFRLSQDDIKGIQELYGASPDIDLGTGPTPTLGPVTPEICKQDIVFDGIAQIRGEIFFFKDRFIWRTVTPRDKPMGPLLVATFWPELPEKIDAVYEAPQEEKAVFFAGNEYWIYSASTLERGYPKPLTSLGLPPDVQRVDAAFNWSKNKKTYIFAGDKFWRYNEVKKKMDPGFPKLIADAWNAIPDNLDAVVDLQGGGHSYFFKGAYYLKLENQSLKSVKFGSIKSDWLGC

[19] = target: T1, Matrix metalloproteinase-9; test: Inhibition of human MMP9 using Dnp-Pro-Cha-Gly-Cys(ME)-His-Ala-Lys(Nma)-NH2 as substrate preincubated for 0.5 hrs followed by substrate addition and measured after 6 hrs by fluorimeter analysis
[20] = target: T5, Stromelysin-1; test: Inhibition of human MMP3 using (7-methoxycoumarine-4-yl)-Arg-Pro-Lys-Pro-Tyr-Ala-Nva-Trp-Met-Lys(Dnp)-NH2 as substrate preincubated for 0.5 hrs followed by substrate addition and measured after 6 hrs by fluorimeter analysis
Target sequence in this assay (P08254 whole entry): as the sequence (P08254 whole entry) above

[21] = target: T3, Collagenase 3; test: Inhibition of human MMP13 using Dnp-Pro-Cha-Gly-Cys(ME)-His-Ala-Lys(Nma)-NH2 as substrate preincubated for 0.5 hrs followed by substrate addition and measured after 6 hrs by fluorimeter analysis
[22] = target: T6, 72 kDa type IV collagenase; test: Inhibition of MMP-2 (unknown origin) assessed as inhibition constant using Mca-Pro-Leu-Gly-Dpa-Ala-Arg-NH2 substrate preincubated for 1 hr followed by substrate addition and measured after 1 hr by fluorimetric analysis
Target sequence in this assay (P08253 whole entry): as the sequence (P08253 whole entry) above

[23] = target: T1, Matrix metalloproteinase-9; test: Inhibition of MMP-9 (unknown origin) assessed as inhibition constant using Mca-Pro-Leu-Gly-Dpa-Ala-Arg-NH2 substrate preincubated for 1 hr followed by substrate addition and measured after 1 hr by fluorimetric analysis
[24] = target: T2, Interstitial collagenase; test: Inhibition of MMP-1 (unknown origin) by fluorimetric assay
[25] = target: T6, 72 kDa type IV collagenase; test: Inhibition of MMP-2 (unknown origin) by fluorimetric assay
Target sequence in this assay (P08253 whole entry): as above

[26] = target: T1, Matrix metalloproteinase-9; test: Inhibition of MMP-9 (unknown origin) by fluorimetric assay
[27] = target: T6, 72 kDa type IV collagenase; test: Inhibition of human MMP2 using Dnp-Pro-Cha-Gly-Cys(Me)-His-Ala-Lys(Nma)-NH2 substrate by fluorimetric analysis
Target sequence in this assay (P08253 whole entry): as above

[28] = target: T1, Matrix metalloproteinase-9; test: Inhibition of human MMP9 using Dnp-Pro-Cha-Gly-Cys(Me)-His-Ala-Lys(Nma)-NH2 substrate by fluorimetric analysis
[29] = target: T5, Stromelysin-1; test: Inhibition of human MMP3 using (7-methoxycoumarine-4-yl)-Arg-Pro-Lys-Pro-Tyr-Ala-Nva-Trp-Met-Lys(Dnp)-NH2 substrate by fluorimetric analysis
Target sequence in this assay (P08254 whole entry): as the sequence (P08254 whole entry) above

[30] = target: T3, Collagenase 3; test: Inhibition of human MMP13 using Dnp-Pro-Cha-Gly-Cys(Me)-His-Ala-Lys(Nma)-NH2 substrate by fluorimetric analysis
[31] = target: T2, Interstitial collagenase; test: Inhibition of human MMP1 using Dnp-Pro-Cha-Gly-Cys(Me)-His-Ala-Lys(Nma)-NH2 substrate by fluorimetric analysis
[32] = target: T6, 72 kDa type IV collagenase; test: Inhibition of MMP-2 (unknown origin) using Ac-PLG-[2-mercapto-4-methylpentanoyl]-LG-OC2H5) as substrate measured upto 20 mins by microplate reader analysis
Target sequence in this assay (P08253 whole entry): as the sequence (P08253 whole entry) above

[33] = target: T1, Matrix metalloproteinase-9; test: Inhibition of MMP-9 (unknown origin) using Ac-PLG-[2-mercapto-4-methylpentanoyl]-LG-OC2H5) as substrate measured upto 20 mins by microplate reader analysis

T1 sequence (P14780 whole entry): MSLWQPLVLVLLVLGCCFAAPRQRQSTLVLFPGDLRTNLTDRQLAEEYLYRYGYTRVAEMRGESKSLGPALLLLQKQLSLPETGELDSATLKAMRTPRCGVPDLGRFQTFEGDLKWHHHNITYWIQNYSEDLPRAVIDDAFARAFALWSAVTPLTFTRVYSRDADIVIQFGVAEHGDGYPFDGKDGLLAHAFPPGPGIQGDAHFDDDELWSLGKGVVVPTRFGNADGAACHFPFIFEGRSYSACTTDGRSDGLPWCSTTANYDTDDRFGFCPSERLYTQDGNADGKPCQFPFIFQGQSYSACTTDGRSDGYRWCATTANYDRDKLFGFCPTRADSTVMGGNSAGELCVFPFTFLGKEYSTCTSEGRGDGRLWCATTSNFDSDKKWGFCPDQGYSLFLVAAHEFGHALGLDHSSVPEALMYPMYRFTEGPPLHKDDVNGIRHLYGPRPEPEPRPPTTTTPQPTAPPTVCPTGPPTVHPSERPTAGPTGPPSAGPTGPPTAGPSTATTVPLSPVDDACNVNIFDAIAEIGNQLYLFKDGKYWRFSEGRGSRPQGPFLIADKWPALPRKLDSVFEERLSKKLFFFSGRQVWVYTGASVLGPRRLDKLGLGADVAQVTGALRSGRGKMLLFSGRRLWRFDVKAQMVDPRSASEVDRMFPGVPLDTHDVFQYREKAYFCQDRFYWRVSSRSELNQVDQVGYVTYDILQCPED

Compound: FC(F)(F)c1ccc(N2CC2Cn2cc(CCCCCCc3cn(CC4CN4c4ccc(C(F)(F)F)cc4)nn3)nn2)cc1 (stereo not drawn)
inhibition [10]: 80.5%
inhibition [11]: 34.9%
inhibition [12]: 27.1%
inhibition [13]: 29.6%
inhibition [14]: 26%
inhibition [15]: 22.3%
inhibition [16]: 27.5%

Compound: O=C(O)[C@H]1[C@H](CN2C(=O)c3ccccc3C2=O)CC[C@@H]1SCc1ccc(-c2ccc(Cl)cc2)cc1
IC50 [17]: 50000 nM
IC50 [18]: 73 nM
IC50 [19]: 13 nM
IC50 [20]: 45 nM
IC50 [21]: 129 nM

Compound: CCCCCCCCCC[C@@H](CC(=O)NO)C(=O)N[C@H](C(=O)NC)c1ccccc1
IC50 [22]: 1.6 nM
IC50 [23]: 0.2 nM

Compound: CC1(C)NC(=O)N(C[C@H](CS(=O)(=O)c2ccc(-c3ccc(OC(F)(F)F)cc3)cc2)N(O)C=O)C1=O
IC50 [24]: 82 nM
IC50 [25]: 0.86 nM
IC50 [26]: 0.34 nM

Compound: O=CN(O)C(CS(=O)(=O)c1ccc(Oc2ccc(OC(F)(F)F)cc2)cc1)[C@@H](O)CO (stereo partly drawn)
IC50 [25]: 0.36 nM
IC50 [26]: 0.092 nM

Results, then the compound that gave them:

IC50 [1]: 2 nM
IC50 [2]: 74 nM
IC50 [3]: 633 nM
IC50 [4]: 39 nM
Compound: COc1ccc(S(=O)(=O)N(c2c(C)cc(-c3cccc(C(F)(F)F)c3)cc2C(=O)NO)N(C)C)cc1

IC50 [5]: 27700 nM
IC50 [6]: 184 nM
IC50 [7]: 57 nM
IC50 [8]: 32 nM
IC50 [9]: 944 nM
Compound: COc1ccc(S(=O)(=O)N2CCN(c3cccnc3)CC2C(=O)NO)cc1 (stereo not drawn)

IC50 [1]: 9 nM
IC50 [2]: 3100 nM
IC50 [3]: 401 nM
IC50 [4]: 16 nM
Compound: COc1ccc(S(=O)(=O)N(Cc2ccccc2)c2c(C(=O)NO)ccc3c(C(C)(C)C)cccc23)cc1

IC50 [27]: 1.64 nM
IC50 [28]: 0.9 nM
IC50 [29]: 6.7 nM
IC50 [30]: 5.5 nM
IC50 [31]: 198 nM
Compound: COc1ccc(S(=O)(=O)N2CC(C)(C)C(CCSCc3ccccc3)C2C(=O)NO)cc1 (stereo not drawn)

IC50 [1]: 5 nM
IC50 [2]: 608 nM
IC50 [3]: 174 nM
IC50 [4]: 14 nM
Compound: COc1ccc(S(=O)(=O)N(C)c2c(CN3CCOCC3)cc(C)cc2C(=O)NO)cc1

IC50 [32]: 0.5 nM
IC50 [33]: 0.8 nM
Compound: O=C(NO)C1(S(=O)(=O)c2ccc(-n3cc(-c4ccc(-c5cncnc5)cc4)nn3)cc2)CCOCC1
